Results as given in patent US10302653B2, “Distinguishing antagonistic and agonistic anti B7-H1 antibodies” (Mayo Foundation for Medical Education and Research, priority 2014, dated 2019).

What was measured:
DNA-PK = DNA-PK (Homo sapiens, UniProt P78527); settings: 10 μM; cited from earlier work
DNA-PKcs = biological target: T1, DNA-PKcs (Mus musculus, UniProt P97313); test: p38 MAPK activation in pre-activated WT and B7-H1 KO T cells cultured with DNA-PKcs inhibitor; format: cell-based
T1 construct: endogenous in cells
Experimental: NU7026 (2-(morpholin-4-yl)-benzo[h]chomen-4-one) is a DNA-PKcs inhibitor. […] NU7026 is added into cultures with pre-activated WT and B7-H1 KO T cells and after 24-72 hours of incubation, the activation of p38 is measured in the cells. As a consequence of p38 MAPK activation regulated by NU7026, the level of Bcl-xL also is measured in the T cells after treatment with NU7026. If p38 activation is regulated by DNA-PKcs, changes in p38 activation in the presence of NU7026 would be observed in WT T cells. If B7-H1 requires DNA-PKcs to regulate activation of p38 MAPK, NU7026 would induce significant changes in p38 MAPK activation in WT T cells, but not in B7-H1 KO T cells. […] Bcl-xL levels would change accordingly with the changes in p38 MAPK activation. In addition to inhibition of DNA-PKcs activity by NU7026, the impact of total DNA-PKcs protein levels on p38 MAPK activation is evaluated. siRNA-mediated knockdown of DNA-PKcs is known to result in reduced ERK activation in mouse macrophages (Yotsumoto et al., supra). Using a similar approach, experiments are conducted to test whether down-regulation of DNA-PKcs in T cells affects p38 MAPK activation in WT and B7-H1 KO T cells. Preliminary data predicts a potential link between DNA-PK and activation of p38 MAPK. […]

T1 sequence (P97313 whole entry): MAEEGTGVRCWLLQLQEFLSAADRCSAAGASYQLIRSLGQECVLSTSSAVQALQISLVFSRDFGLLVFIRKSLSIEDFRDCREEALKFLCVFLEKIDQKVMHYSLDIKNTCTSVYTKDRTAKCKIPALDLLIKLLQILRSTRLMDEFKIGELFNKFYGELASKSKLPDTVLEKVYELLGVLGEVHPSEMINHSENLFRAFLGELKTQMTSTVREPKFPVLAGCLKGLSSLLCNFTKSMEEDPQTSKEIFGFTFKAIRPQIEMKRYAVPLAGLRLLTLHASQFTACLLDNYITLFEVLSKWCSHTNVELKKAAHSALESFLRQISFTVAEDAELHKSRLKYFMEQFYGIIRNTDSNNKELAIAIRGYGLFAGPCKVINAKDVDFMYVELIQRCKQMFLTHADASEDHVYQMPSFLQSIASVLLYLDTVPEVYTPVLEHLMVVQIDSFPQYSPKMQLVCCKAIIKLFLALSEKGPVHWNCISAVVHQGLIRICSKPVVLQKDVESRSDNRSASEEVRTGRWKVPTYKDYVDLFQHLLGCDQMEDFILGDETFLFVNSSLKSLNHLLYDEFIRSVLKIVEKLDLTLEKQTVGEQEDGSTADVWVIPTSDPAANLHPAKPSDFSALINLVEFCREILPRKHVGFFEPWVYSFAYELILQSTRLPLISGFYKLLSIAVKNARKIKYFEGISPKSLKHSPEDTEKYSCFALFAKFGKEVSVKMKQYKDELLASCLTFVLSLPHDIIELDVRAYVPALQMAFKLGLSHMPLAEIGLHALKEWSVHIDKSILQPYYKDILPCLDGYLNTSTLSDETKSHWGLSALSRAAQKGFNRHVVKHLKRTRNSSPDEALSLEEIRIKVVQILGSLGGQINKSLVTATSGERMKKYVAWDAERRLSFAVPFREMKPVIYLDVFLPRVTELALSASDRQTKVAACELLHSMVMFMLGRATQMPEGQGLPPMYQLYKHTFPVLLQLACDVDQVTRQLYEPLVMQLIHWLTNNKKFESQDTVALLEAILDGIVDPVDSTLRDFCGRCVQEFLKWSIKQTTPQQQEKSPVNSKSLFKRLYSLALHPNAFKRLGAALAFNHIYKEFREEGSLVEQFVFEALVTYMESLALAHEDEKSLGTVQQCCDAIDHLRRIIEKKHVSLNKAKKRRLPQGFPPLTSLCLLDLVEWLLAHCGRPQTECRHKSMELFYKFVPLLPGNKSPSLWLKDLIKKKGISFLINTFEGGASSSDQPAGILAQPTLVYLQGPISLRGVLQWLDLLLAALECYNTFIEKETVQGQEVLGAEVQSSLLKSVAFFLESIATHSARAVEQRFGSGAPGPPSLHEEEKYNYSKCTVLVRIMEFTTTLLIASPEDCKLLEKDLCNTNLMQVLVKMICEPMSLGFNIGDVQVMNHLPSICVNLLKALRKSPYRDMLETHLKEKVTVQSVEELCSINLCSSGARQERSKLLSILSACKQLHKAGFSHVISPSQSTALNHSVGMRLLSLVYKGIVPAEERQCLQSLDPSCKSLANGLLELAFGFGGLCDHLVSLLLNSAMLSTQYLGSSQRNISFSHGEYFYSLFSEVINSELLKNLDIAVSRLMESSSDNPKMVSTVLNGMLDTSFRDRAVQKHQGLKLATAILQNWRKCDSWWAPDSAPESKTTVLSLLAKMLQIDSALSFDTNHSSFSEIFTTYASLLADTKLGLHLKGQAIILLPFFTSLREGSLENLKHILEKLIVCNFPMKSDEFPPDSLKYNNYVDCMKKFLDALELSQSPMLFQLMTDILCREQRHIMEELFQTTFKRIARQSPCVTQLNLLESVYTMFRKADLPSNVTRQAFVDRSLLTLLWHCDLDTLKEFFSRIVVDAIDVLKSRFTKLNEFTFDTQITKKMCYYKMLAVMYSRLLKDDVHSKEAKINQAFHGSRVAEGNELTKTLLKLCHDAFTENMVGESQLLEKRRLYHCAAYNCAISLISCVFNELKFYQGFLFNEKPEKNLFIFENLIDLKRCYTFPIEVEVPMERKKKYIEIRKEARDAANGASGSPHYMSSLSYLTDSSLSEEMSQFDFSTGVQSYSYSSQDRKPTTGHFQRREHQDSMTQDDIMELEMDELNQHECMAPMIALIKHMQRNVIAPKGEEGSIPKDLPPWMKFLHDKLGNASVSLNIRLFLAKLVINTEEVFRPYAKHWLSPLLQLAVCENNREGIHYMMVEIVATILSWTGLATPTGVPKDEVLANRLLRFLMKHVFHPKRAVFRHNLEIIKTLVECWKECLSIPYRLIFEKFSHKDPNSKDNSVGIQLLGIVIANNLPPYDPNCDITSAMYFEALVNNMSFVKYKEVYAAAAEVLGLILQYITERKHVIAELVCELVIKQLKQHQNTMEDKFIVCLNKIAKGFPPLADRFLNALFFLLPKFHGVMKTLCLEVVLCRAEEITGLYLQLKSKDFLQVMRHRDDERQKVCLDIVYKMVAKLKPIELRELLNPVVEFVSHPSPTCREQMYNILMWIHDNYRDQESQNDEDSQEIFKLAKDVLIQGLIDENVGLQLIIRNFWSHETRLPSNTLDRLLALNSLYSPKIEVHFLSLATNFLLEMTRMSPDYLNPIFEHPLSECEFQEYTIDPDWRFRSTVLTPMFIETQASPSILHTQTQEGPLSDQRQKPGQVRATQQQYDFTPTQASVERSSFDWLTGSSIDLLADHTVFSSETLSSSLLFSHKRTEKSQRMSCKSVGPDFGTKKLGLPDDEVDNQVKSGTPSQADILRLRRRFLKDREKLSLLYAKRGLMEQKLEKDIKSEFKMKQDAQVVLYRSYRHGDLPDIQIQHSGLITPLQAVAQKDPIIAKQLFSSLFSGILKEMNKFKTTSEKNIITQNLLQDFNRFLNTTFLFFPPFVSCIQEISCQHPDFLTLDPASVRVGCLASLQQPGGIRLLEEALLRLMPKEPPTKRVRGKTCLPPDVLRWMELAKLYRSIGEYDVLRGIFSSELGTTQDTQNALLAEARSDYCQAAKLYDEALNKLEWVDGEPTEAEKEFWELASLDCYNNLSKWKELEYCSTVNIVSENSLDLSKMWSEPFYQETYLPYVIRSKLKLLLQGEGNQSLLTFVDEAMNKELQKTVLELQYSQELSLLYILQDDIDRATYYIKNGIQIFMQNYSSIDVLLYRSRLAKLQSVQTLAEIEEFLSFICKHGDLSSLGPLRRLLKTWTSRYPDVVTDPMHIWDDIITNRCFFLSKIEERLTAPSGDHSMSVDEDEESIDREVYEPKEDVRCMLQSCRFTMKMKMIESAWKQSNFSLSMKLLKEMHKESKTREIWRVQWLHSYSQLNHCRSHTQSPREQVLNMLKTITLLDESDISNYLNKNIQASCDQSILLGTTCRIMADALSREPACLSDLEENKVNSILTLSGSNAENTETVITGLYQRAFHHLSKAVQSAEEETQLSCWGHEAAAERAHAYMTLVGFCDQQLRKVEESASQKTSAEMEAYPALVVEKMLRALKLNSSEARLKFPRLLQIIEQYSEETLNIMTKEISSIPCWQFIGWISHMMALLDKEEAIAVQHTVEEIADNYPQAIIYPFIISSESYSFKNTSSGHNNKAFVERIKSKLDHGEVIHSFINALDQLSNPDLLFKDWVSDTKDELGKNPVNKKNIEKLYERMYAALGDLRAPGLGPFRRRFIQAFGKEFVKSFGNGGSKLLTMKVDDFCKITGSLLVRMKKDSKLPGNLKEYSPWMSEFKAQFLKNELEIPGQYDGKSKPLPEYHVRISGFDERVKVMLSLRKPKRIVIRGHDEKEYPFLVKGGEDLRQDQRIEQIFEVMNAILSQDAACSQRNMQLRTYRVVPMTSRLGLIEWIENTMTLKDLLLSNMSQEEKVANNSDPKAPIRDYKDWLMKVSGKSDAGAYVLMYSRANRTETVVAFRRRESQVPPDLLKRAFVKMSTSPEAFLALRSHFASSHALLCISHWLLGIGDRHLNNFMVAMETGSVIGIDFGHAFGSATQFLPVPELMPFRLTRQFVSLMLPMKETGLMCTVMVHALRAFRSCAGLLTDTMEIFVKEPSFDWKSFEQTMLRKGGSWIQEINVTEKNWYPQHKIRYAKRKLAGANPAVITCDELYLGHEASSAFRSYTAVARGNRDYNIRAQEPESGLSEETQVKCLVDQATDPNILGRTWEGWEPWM

For `O=c1cc(N2CCOCC2)oc2c1ccc1ccccc12` [NU7026, 2-(morpholin-4-yl)-benzo[h]chomen-4-one], the “inhibition of activity of purified DNA-PK” value (DNA-PK) is listed as “completely inhibit” and the “p38 MAPK activation in WT T cells” value (DNA-PKcs) is listed as “increased”.
